According to patent publication US20260130928A1, “COMBINATION OF AKR1C3 ACTIVATED ANTICANCER PRODRUG COMPOUND AND ANALGESIC DRUG FOR TREATING CANCER PATIENTS ACCOMPANIED BY PAIN” (ASCENTAWITS PHARMACEUTICALS, LTD., priority 2022, published 2026):
Like-named read-outs stand apart in the source and are kept apart here.

Legend:
H460 cell line = test: In vitro cell proliferation inhibition with the drug combination (CTG method); format: cell-based, human; settings: for IC50: Homo sapiens
Experimental: • a) H460 cells (human non-small lung cancer cells, AKR1C3 enzyme highly expressed) were cultured in RPMI-1640 medium, added with 10% FBS and 1% double antibody, and placed at 37° C. and 5% CO2 for culturing.
• a) The cells were routinely cultured until the cell saturation was 80%-90%, and when the required quantity was reached, the cells were collected. • b) The cells were resuspended with the corresponding medium and cell counts were performed to prepare a cell suspension with appropriate density. • c) The cell suspension was added to a 96-well plate with 100 μL per well, and the cell density was 2,000 cells per well. • d) The cells were incubated overnight in an incubator at 37° C. with 5% CO2. 1.1.3 Treating Cells with Compound (72 Hours)
AST-3424 alone: after 24 hours of cell seeding, AST-3424 was administered alone. Specifically, each well was supplemented with 99 μL of growth medium, and then added with 1 μL of the prepared AST-3424 solution to form different concentrations of AST-3424. The plate was shaken gently to ensure uniform mixing, and placed in an incubator at 37° C. with 5% CO2.
The cell plates were placed in the incubator for 72 hours.
1.1.4 Treating Cells with Compound (2 Hours) • a) Administrating single drug: after 24 hours of cell seeding, AST-3424 was administered alone. Specifically, each well was supplemented with 99 μL of growth medium, and then added with 1 μL of the prepared AST-3424 solution to form different concentrations of AST-3424. The plate was shaken gently to ensure uniform mixing, and placed in the incubator for 2 hours. […] The plate was shaken gently to ensure uniform mixing. After the plate was placed in the incubator for 2 hours, 1 μL of the prepared AST-3424 solution was added to form different concentrations of AST-3424. The plate was shaken gently to ensure uniform mixing, and placed in the incubator at 37° C. with 5% CO2 for another 2 hours. Then, the supernatant was discarded, and the remainder was washed twice with growth medium and added with 200 μL of fresh medium.
1.1.6 Detecting with CTG Method • a) The cell plate to be tested was placed at room temperature to equilibrium for 30 minutes, and 100 μL of culture medium was discarded from each well. • b) 25 μL CTG reagent (CelltiterGlo kit) was added to each well. The plate was placed on a fast shaker to shake for 2 minutes, and then placed at room temperature away from light for 30 minutes. • c) The chemiluminescent signal value was read with multifunctional microplate reader at reading time of 1000 ms.
IC50 was calculated with GraphPad Prism 5 software, and the IC50 (half maximal inhibitory concentration) of the compound was obtained using the following nonlinear fitting formula: […]

[1] = test system: human lung cancer NCI-H460; test: Pharmacodynamics in subcutaneous xenograft model of human lung cancer NCI-H460 (tumor volume, TGI); format: in vivo, BALB/c nude mice; settings: Group 7: AST-3424 2.5 mg/kg QW×3 i.v.
Experimental: Measures of pharmacodynamics of AST-3424 monotherapy and combination therapy with Celecoxib were performed in a subcutaneous xenograft model of human lung cancer NCI-H460 established by using female BALB/c nude mice.
After the inoculation of tumor cell, tumor growth was routinely monitored, and tumor volume and mouse weight were measured. Evaluation of therapeutic efficiency was based on the relative tumor growth inhibition TGI (%). The specific results are shown in Table 3 and FIG. 3, and the Pharmacodynamics analysis data on Day 30 after inoculation (at the end of drug administration) are particularly given in Table 4.

[2] = Body weight / tolerance of mice in the human lung cancer NCI-H460 model
Experimental: BALB/c nude mice were subcutaneously inoculated with human lung cancer NCI-H460 cells to establish the subcutaneous transplant tumor model of human lung cancer. The experiment was assigned to seven groups, with 5 mice in each group: the test drug Celecoxib 50 mg/kg and 100 mg/kg groups, the AST-3424 2.5 mg/kg group, and different combination therapy groups of Celecoxib 50 mg/kg or 100 mg/kg and AST-3424 2.5 mg/kg, and the 0.5% sodium carboxymethylcellulose vehicle control group. […] The AST-3424 2.5 mg/kg group was administered by tail vein injection once a week for a total of three weeks, and observed for 7 days. In the combination therapy groups of Celecoxib 50 mg/kg or 100 mg/kg and AST-3424 2.5 mg/kg, Celecoxib was administered by gavage once a day for a total of 15 days, and AST-3424 was administered by tail vein injection once a week for a total of three weeks, and observed for 7 days.

[3] = cited from earlier work; for AUC0-t / CL (L/h/m^2) / Cmax / T1/2 / Tmax / Vdss (L/m^2): patients, mean
[4] = Group 7: AST-3424 2.5 mg/kg QW×3 i.v., Day 37 after the inoculation of tumor cell
[5] = OBI-3424 dose level 1 mg/m^2, infusion
[6] = OBI-3424 dose level 2 mg/m^2, infusion
[7] = OBI-3424 dose level 4 mg/m^2, infusion
[8] = OBI-3424 dose level 6 mg/m^2, infusion
[9] = OBI-3424 dose level 8 mg/m^2, infusion
[10] = OBI-3424 dose level 10 mg/m^2, infusion
[11] = OBI-3424 dose level 12 mg/m^2, infusion
[12] = OBI-3424 dose level 14 mg/m^2, infusion

## C[C@H](OP(=O)(N1CC1)N1CC1)c1ccc([N+](=O)[O-])c(Oc2cccc(C(=O)N(C)C)c2)c1 [AST-3424]
H460 cell line; NCI-H460, AST-3424 alone, read-out: IC50(nM) -TH-3021
  IC50: 0.97 nM
H460 cell line; NCI-H460, read-out: IC50(nM) +3 μM TH-3021, +3 μM TH-3021 (2 h pre-incubation, then 2 h with AST-3424)
  IC50: 360 nM
H460 cell line; IC50 +3 μM TH-3021 vs AST-3424 alone
  Inhibition factor: 371.65
[1]; Day 9 after cell inoculation
  Tumor volume (x ± S): 144.01 ± 11.36 mm^3
[1]; Day 12 after cell inoculation
  Tumor volume (x ± S): 164.28 ± 17.97 mm^3
[1]; Day 16 after cell inoculation
  Tumor volume (x ± S): 166.22 ± 18.81 mm^3
[1]; Day 19 after cell inoculation
  Tumor volume (x ± S): 209.80 ± 41.43 mm^3
[1]; Day 23 after cell inoculation
  Tumor volume (x ± S): 208.60 ± 43.27 mm^3
[1]; Day 26 after cell inoculation
  Tumor volume (x ± S): 291.82 ± 67.06 mm^3
[1]; Day 30 after cell inoculation
  Tumor volume (x ± S): 327.47 ± 85.10 mm^3
[1]; Day 30 after inoculation
  Relative tumor volume (x ± S): 2.19 ± 0.41
  T/C (%): 39.25%
[1]; Day 30 after inoculation, 2.5 mg/kg
  TGI (%): 60.75%
[1]; Day 30 after inoculation, in mm³
  Tumor volume (x ± S): 327.47 ± 85.10
[1]; Day 33 after cell inoculation
  Tumor volume (x ± S): 348.83 ± 90.34 mm^3
[1]; Day 37 after cell inoculation
  Tumor volume (x ± S): 439.52 ± 142.78 mm^3
[2]; Group 7: AST-3424 2.5 mg/kg QW×3 i.v., Day 9 after the inoculation of tumor cell
  Mean body weight g (x ± S): 25.6 ± 0.7 g
[2]; [4]
  Change of body weight (%): −11.74%
  Mean body weight g (x ± S): 22.5 ± 0.5 g
[2]; NCI-H460 model
  tolerance of mice: good tolerance
[3]; [5]
  AUC0-t: 217.10 ng·h/mL
  CL (L/h/m^2): 4.74 L/h/m^2
  Cmax: 289.30 ng/mL
  T1/2: 17.4 min
  Tmax: 27.6 min
  Vdss (L/m^2): 2.45 L/m^2
[3]; [6]
  AUC0-t: 298.00 ng·h/mL
  CL (L/h/m^2): 8.85 L/h/m^2
  Cmax: 375.80 ng/mL
  T1/2: 18.6 min
  Tmax: 30 min
  Vdss (L/m^2): 4.13 L/m^2
[3]; [7]
  AUC0-t: 650.90 ng·h/mL
  CL (L/h/m^2): 7.74 L/h/m^2
  Cmax: 803.50 ng/mL
  T1/2: 12.6 min
  Tmax: 19.8 min
  Vdss (L/m^2): 2.68 L/m^2
[3]; [8]
  AUC0-t: 1278.10 ng·h/mL
  CL (L/h/m^2): 4.84 L/h/m^2
  Cmax: 1360.30 ng/mL
  T1/2: 44.4 min
  Tmax: 30 min
  Vdss (L/m^2): 3.72 L/m^2
[3]; [9]
  AUC0-t: 1678.40 ng·h/mL
  CL (L/h/m^2): 6.53 L/h/m^2
  Cmax: 1613.10 ng/mL
  T1/2: 40.2 min
  Tmax: 25.2 min
  Vdss (L/m^2): 3.97 L/m^2
[3]; [10]
  AUC0-t: 2037.00 ng·h/mL
  CL (L/h/m^2): 4.92 L/h/m^2
  Cmax: 2654.70 ng/mL
  T1/2: 34.2 min
  Tmax: 30 min
  Vdss (L/m^2): 3.06 L/m^2
[3]; [11]
  AUC0-t: 2159.40 ng·h/mL
  CL (L/h/m^2): 8.20 L/h/m^2
  Cmax: 2481.90 ng/mL
  T1/2: 33 min
  Tmax: 26.4 min
  Vdss (L/m^2): 4.33 L/m^2
[3]; [12]
  AUC0-t: 2131.80 ng·h/mL
  CL (L/h/m^2): 8.49 L/h/m^2
  Cmax: 2619.20 ng/mL
  T1/2: 33 min
  Tmax: 25.2 min
  Vdss (L/m^2): 4.31 L/m^2
[3]; between the two doses (Cycle 1 Day1 and Cycle 1 Day8)
  accumulation of exposure (Cmax and AUC): no accumulation of exposure
